Our source for the Activity values is ChEMBL document CHEMBL2074449, “P-glycoprotein mediates profound resistance to bisantrene” (Oncol Res, 1994).

Each structure is given as a SMILES string.

In this data set the target is ATP-dependent translocase ABCB1 (Homo sapiens, UniProt P08183). In words: TP_TRANSPORTER: efflux in S1-B1-20 cells. It is filed as functional, cell-based.
Chain of ATP-dependent translocase ABCB1 (P08183 whole entry): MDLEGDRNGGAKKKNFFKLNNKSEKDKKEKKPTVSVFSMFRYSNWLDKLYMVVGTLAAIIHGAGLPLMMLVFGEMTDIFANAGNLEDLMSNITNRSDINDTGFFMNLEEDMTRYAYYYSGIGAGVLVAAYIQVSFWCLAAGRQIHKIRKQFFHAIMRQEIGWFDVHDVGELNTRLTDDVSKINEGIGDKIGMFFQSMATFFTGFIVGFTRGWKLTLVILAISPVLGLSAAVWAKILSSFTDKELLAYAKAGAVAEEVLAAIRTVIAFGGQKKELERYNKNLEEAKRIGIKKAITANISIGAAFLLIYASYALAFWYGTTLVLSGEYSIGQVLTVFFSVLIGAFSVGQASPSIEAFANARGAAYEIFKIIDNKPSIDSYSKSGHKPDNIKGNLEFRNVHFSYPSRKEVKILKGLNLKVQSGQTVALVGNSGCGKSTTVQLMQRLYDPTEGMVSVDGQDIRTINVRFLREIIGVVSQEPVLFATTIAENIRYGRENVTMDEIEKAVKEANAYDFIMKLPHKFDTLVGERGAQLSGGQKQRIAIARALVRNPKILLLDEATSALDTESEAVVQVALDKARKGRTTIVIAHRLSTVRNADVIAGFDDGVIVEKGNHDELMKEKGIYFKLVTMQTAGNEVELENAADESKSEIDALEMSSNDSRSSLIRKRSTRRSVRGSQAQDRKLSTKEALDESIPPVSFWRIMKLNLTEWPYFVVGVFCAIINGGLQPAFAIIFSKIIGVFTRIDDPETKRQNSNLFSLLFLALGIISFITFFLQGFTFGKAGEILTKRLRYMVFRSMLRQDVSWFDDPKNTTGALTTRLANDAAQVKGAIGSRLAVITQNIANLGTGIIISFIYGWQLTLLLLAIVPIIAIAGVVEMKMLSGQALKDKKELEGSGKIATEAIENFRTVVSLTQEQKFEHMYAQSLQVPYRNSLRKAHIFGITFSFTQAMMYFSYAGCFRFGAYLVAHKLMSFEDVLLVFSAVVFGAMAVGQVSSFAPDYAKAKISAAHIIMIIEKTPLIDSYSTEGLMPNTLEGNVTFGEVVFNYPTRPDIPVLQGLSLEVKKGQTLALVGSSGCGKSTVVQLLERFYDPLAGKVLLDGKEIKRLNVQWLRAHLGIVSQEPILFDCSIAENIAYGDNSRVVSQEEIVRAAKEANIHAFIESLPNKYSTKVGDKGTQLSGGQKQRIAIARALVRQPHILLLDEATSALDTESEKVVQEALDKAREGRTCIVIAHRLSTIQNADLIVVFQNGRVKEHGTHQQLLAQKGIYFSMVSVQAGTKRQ

As to `C(=N\NC1=NCCN1)/c1c2ccccc2c(/C=N/NC2=NCCN2)c2ccccc12` [BISANTRENE], the Activity result is “substrate [+]”.
